What was measured:
PASMC = experiment: Membrane potential (Em) measurement, current clamp, primary PASMC; format: cell-based, human; details: BBR 30 μM, T16Ainh-A01 10 μM
Procedure: PASMC were grown on glass coverslips and serum starved for 24-48 hours. The coverslips were perfused with a bath solution composed of (in mM) NaCl 141, KCl 4.7, HEPES 10, glucose 10, CaCl2 1.8, MgCl2 1.2, pH 7.4 (NaOH) at room temperature. Micropipettes were pulled of borosilicate glass capillaries (GC150F-10, Harvard Apparatus Ltd, Edenbridge, Kent, UK) with a P-2000 electrode puller (Sutter Instruments, Novato Ca, USA), and fire polished using a micro-forge (MF-830, Narishige, Tokyo, Japan) to give a final resistance of 3-5 MΩ when filled with the pipette solution (composition in mM: NaCl 10, KCl 125, K2ATP 5, HEPES 10, EGTA 5, MgCl2 4, pH set to 7.2 with KOH). Em was measured with a HEKA EPC10 patch clamp amplifier (Dr. Schulze GmbH, Lambrecht, Germany) in the current clamp mode as described by others (Mason, M J, et al., Biophys. J. (2005) 88, 739-750; Perkins, KL, J. Neurosci. Methods (2006) 154, 1-18).
The liquid junction potential was calculated with the Clampex 10.0 software (Molecular Devices, Sunnyvale Calif., USA) and an online correction was made for each recording. Both at baseline and during perfusion with 30 μM benzbromarone (BBR, Sigma, St Louis Mo., USA) or 10 μM T16Ainh-A01 (Tocris, Bristol, UK), only those recordings in which (1) the Em was constant for at least 3 minutes, and (2) the seal resistance was constantly high (>5 GΩ) were used for the analyses.
The HEK-293 cells were transfected overnight either with the CLCA1 gene containing or with the empty plasmid, using the Effectene transfection reagent kit (Qiagen) and DMEM F-12 complete medium. On the next day, the medium was changed to serum-free SMC Medium. The resulting conditioned media were collected 24 hours later and applied on the PASMC of healthy donors. After 24 hours of incubation, the Em of the PASMC was measured as described above. To confirm the presence of CLCA1 in the conditioned medium, 20 μL of conditioned medium as well as control medium (collected from cells transfected with the empty plasmide) were analyzed with western blot as described above, using a CLCA1 antibody (ab108851, Abcam).

[1] = tested on: U-46619 preconstricted isolated mouse PA; experiment: Measurement of pulmonary artery tone ex vivo; details: cumulatively increasing concentrations 0.1 to 30 μM; U-46619 30 nM
Procedure: Pulmonary artery rings were isolated from male C57BL/6J mice (20-25 weeks old, Charles River, Wilmington Mass., USA), as described by Jain et al. (Jain, P P, et al., Int. J. Nanomedicine (2014) 9, 3249-3261). Following stable contraction (approx. 30 minutes post-addition of U-46619, 30 nM), the arteries were subjected to cumulatively increasing concentrations (0.1 to 30 μM) of the TMEM6A blockers T16Ainh-A01 (Tocris) and benzbromarone (Sigma) in order to analyze the concentration-response relationships.

CCc1c(C)nc(SCC(=O)Nc2nc(-c3ccc(OC)cc3)cs2)[nH]c1=O [T16Ainh-A01, 2-[(5-Ethyl-1,6-dihydro-4-methyl-6-oxo-2-pyrimidinyl)thio]-N-[4-(4-methoxyphenyl)-2-thiazolyl]-acetamide]
reversal of the Em of IPAH-PASMC to the levels of PASMC isolated from healthy donors (PASMC; PASMC of IPAH patients): close
effect on Em of PASMC of donors (PASMC; PASMC of healthy donors): no effect
vasorelaxation of preconstricted PA [1]: dose-dependent vasorelaxation

— patent US20210156844A1, “TMEM16A Modulation for Diagnostic or Therapeutic Use in Pulmonary Hypertension (PH)” (Bayer Aktiengesellschaft, priority 2017, published 2021)
